{"source": "patent EP0471358B1", "about": "“Fluoroethylcamptothecin derivatives” (KYORIN PHARMACEUTICAL CO., LTD., priority 1990, dated 1992)"}
{"tested_on": "P388 leukemia", "experiment": "Antineoplastic effect for P388 leukemia mice (survival, T/C)", "type": "in vivo, CDF₁ mice", "conditions": "Total dose 20 mg/kg; dosed to the abdominal cavity 1, 5 and 9 days after transplantation of 10⁶ P388 cells; average survival days of dosed vs non-dosed group", "protocol": "(§1) P388 cells of 10⁶ in number were transplanted into abdominal cavity of CDF₁ mice of approximately 9 week-age (female, Non-dosed group: 5 - 8 mice, group dosed with the test compound: 1 - 5 mice). One, five, and nine days after the transplantation, the test compound which was dissolved or suspended in 1% Tween 80 (Kanto Chemical Inc.)/physiological saline was dosed to the abdominal cavity. The antineoplastic effect of the test compounds are shown by the T/C value (%) derived from the formula below. (T)/(C)(%) =(Average survival days of dosed group)/(Average survival days of non-dosed group)x 100 [formula]", "units": {"T/C (%)": "%"}}
{"smiles": "CC[C@@]1(O)C(=O)OCc2c1cc1n(c2=O)Cc2cc3ccccc3nc2-1", "note": "[Camptothecin]", "T/C (%)": 218}
{"smiles": "CCc1c2c(nc3ccc(C)cc13)-c1cc3c(c(=O)n1C2)COC(=O)C3(O)CCF", "note": "(stereo not shown) [Example 11, 11-ethyl-4-(2-fluoroethyl)-4-hydroxy-9-methyl-1H-pyrano[3',4':6,7]indolizino[1,2-b]quinoline-3,14(4H,12H)-dione]", "T/C (%)": 483}
{"smiles": "CCc1c2c(nc3ccc([N+](=O)[O-])cc13)-c1cc3c(c(=O)n1C2)COC(=O)C3(O)CCF", "note": "(stereo not shown) [Example 16, 11-ethyl-4-(2-fluoroethyl)-4-hydroxy-9-nitro-1H-pyrano[3',4':6,7]indolizino[1,2-b]quinoline-3,14(4H,12H)-dione]", "T/C (%)": 345}
{"smiles": "O=C1OCc2c(cc3n(c2=O)Cc2c-3nc3ccc(Cl)c4c3c2CCC4)C1(O)CCF", "note": "(stereo not shown) [Example 24, 4-chloro-9-(2-fluoroethyl)-2,3-dihydro-9-hydroxy-1H,12H-benzo[d,e]pyrano[3',4':6,7]indolizino[1,2-b]quinoline-10,13(9H,15H)-dione]", "T/C (%)": 385}
{"tested_on": "P388 leukemia", "experiment": "Antineoplastic effect for P388 leukemia mice (survival, T/C)", "type": "in vivo, CDF₁ mice", "conditions": "Total dose 30 mg/kg; dosed to the abdominal cavity 1, 5 and 9 days after transplantation of 10⁶ P388 cells; average survival days of dosed vs non-dosed group", "protocol": "as §1", "units": {"T/C (%)": "%"}}
{"smiles": "CCc1ccc2nc3c(c(CC)c2c1)Cn1c-3cc2c(c1=O)COC(=O)C2(O)CCF", "note": "(stereo not shown) [Example 25, 9,11-diethyl-4-(2-fluoroethyl)-4-hydroxy-1H-pyrano[3',4':6,7]indolizino[1,2-b]quinoline-3,14(4H,12H)-dione]", "T/C (%)": 345}
{"smiles": "CCOc1ccc2nc3c(c(CC)c2c1)Cn1c-3cc2c(c1=O)COC(=O)C2(O)CCF", "note": "(stereo not shown) [Example 26, 9-ethoxy-11-ethyl-4-[2-fluoroethyl)-4-hydroxy-1H-pyrano[3',4':6,7]indolizino[1,2-b]quinoline-3,14(4H,12H)-dione]", "T/C (%)": 583}
{"smiles": "Cc1c2c(nc3ccccc13)-c1cc3c(c(=O)n1C2)COC(=O)C3(O)CCF", "note": "(stereo not shown) [Example 41, 4-[2-fluoroethyl)-4-hydroxy-11-methyl-1H-pyrano[3',4':6,7]indolizino[1,2-b]quinoline-3,14(4H,12H)-dione]", "T/C (%)": 386}
